Data from patent US20210308108A1, “ACTIVATING PYRUVATE KINASE R” (FORMA Therapeutics, Inc., priority 2018, published 2021).

Tests used:
Assay type in all cases: biochemical
PKR-R510Q [1] = biological target: T1, PKR-R510Q (Homo sapiens, UniProt P30613, R510Q); assay: Enzyme assay, kinetic parameters (Vmax, PEP Km)
Protocol: (§1) Tests were conducted in the presence and absence of fructose-1,6-bisphosphate (FBP), a known allosteric activator of PKR.

wt-PKR [2] = biological target: T2, wt-PKR (Homo sapiens, UniProt P30613); assay: Enzyme assay, kinetic parameters (Vmax, PEP Km)
T2 sequence (P30613 whole entry): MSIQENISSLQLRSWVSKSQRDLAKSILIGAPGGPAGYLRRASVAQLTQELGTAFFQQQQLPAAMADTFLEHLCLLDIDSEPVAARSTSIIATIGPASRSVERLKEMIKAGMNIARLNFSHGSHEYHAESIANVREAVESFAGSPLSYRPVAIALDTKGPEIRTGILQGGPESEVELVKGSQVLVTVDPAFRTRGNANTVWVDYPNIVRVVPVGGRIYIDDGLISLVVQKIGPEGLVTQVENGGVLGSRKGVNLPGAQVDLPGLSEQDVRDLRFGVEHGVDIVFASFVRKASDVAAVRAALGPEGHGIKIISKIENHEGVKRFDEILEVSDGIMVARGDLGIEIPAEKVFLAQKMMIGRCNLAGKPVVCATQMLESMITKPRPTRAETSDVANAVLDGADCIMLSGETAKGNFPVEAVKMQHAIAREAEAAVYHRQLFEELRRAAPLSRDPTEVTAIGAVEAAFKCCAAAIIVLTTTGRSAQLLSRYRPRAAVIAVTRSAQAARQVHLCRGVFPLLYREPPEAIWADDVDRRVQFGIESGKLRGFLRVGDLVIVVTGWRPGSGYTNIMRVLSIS
Protocol: as §1

wt-PKR [3] = biological target: T2, wt-PKR; assay: Enzyme assay, activation at different compound concentrations (rate of ATP formation); settings: PEP concentrations at or below Km
PKR-R510Q [4] = biological target: T1, PKR-R510Q; assay: as above; settings: PEP concentrations at or below Km
[5] = 2 μM Compound 1, in the presence or absence of FBP
[6] = 2 μM Compound 1, presence and absence of FBP

T1 sequence (P30613 whole entry R510Q): as the sequence (P30613 whole entry) above, with R510Q counted along it

`O=C([C@H](CO)c1ccccc1)N1CC2=C(C1)CN(S(=O)(=O)c1cnc3c(c1)OCCO3)C2` (single isomer, unassigned) [Compound 1] was tested, and the “reduction of PEP Km” value (PKR-R510Q [1]; [5]) was ~2 fold, the “effect on Vmax” value (PKR-R510Q [1]; [6]) was “no effect to a modest increase” and the “reduction of PEP Km” value (wt-PKR [2]; [5]) was ~2 fold. The “effect on Vmax” value (wt-PKR [2]; [6]) was “no effect to a modest increase”, the “Maximum-fold Activation” value (wt-PKR [3]) was <2.0 fold and the “Maximum-fold Activation” value (PKR-R510Q [4]) was <3.0 fold.
